Assay results published in PubChem BioAssay (NCI).
Values joined by “and” are separate entries in the source; they are usually repeats but may differ in a detail not shown here. Identical values can stand only once.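 Method: 48-hour compound exposure of cells in 96-well plates, five concentrations, linear interpolation of endpoints. Abbreviation: GI50, concentration required for 50% inhibition of growth. Definition used: TGI = concentration required for complete inhibition of growth.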

Columns and labels:
Assay in all cases: growth of human tumour cells (NCI), 48 h
PC-3 prostate = tested on: PC-3 prostate
SK-MEL-2 melanoma = tested on: SK-MEL-2 melanoma
HOP-92 NSCLC = tested on: HOP-92 NSCLC
ACHN renal = tested on: ACHN renal
RXF 393 renal = tested on: RXF 393 renal
MDA-MB-435 = tested on: MDA-MB-435
CAKI-1 renal = tested on: CAKI-1 renal
OVCAR-5 ovarian = tested on: OVCAR-5 ovarian
NCI/ADR-RES ovarian = tested on: NCI/ADR-RES ovarian
SF-295 CNS = tested on: SF-295 CNS

| SMILES | TGI (PC-3 prostate) | TGI (SK-MEL-2 melanoma) | TGI (HOP-92 NSCLC) | TGI (ACHN renal) | TGI (RXF 393 renal) | TGI (MDA-MB-435) | TGI (CAKI-1 renal) | TGI (OVCAR-5 ovarian) | TGI (NCI/ADR-RES ovarian) | TGI (SF-295 CNS) | GI50 (PC-3 prostate) | GI50 (SK-MEL-2 melanoma) | GI50 (HOP-92 NSCLC) | GI50 (ACHN renal) | GI50 (RXF 393 renal) | GI50 (MDA-MB-435) | GI50 (CAKI-1 renal) | GI50 (OVCAR-5 ovarian) | GI50 (NCI/ADR-RES ovarian) | GI50 (SF-295 CNS) |
| --- | --- | --- | --- | --- | --- | --- | --- | --- | --- | --- | --- | --- | --- | --- | --- | --- | --- | --- | --- | --- |
| c1ccc(B2OCC(C3OB(c4ccccc4)OC4COB(c5ccccc5)OC43)O2)cc1 (stereo not drawn) | > 100 µM | > 100 µM | > 100 µM | > 100 µM | > 100 µM | > 100 µM | > 100 µM | > 100 µM | > 100 µM | > 100 µM | – | – | – | – | – | – | – | – | – | – |
| O=C1c2ccccc2-c2c1c1ccc([N+](=O)[O-])cc1c(=O)n2CCCNCCO | 1.52 µM | 3.82 µM | 0.0899 µM | 0.48 µM | 3.88 µM | 2.67 µM | 1.81 µM | 1.92 µM | 3.19 µM | 1.44 µM | 0.0907 µM | 1.69 µM | 0.0259 µM | 0.0496 µM | 1.87 µM | 0.95 µM | 0.126 µM | 0.52 µM | 0.65 µM | 0.0729 µM |
| N#C/C(=C\c1c(-c2ccccc2)[nH]c2ccccc12)C(=O)c1ccccc1 | > 100 µM | > 100 µM | 28.7 µM | > 100 µM | > 100 µM | 4.14 µM | > 100 µM | > 100 µM | > 100 µM | > 100 µM | 3.46 µM | 35.2 µM | 4.51 µM | 7.16 µM | 9.61 µM | 0.37 µM | 2.45 µM | > 100 µM | 3.11 µM | 3 µM |
| Cc1nc2c(N3CCCC3)nc(N3CCNCC3)nc2nc1NCc1ccccc1 | 11 µM and 17 µM | 9.42 µM and 9.97 µM | 7.83 µM and 13.7 µM | 7.54 µM and 16.5 µM | 11 µM and 2.66 µM | 10 µM and 6.41 µM | 10.6 µM and 14 µM | 11.6 µM and 26.1 µM | 13.6 µM and 29 µM | 11.3 µM and 5.02 µM | – | 4.48 µM | – | 2.69 µM | 4.81 µM | 4.36 µM | 4.82 µM | 6.11 µM | 6.84 µM | 5.81 µM |
| COc1ccc(-c2ccc(-c3ccc(C(=N)N)cn3)o2)cc1Cl | 2.68 µM | 3.81 µM | 2.44 µM | 3.1 µM | 3.07 µM | 3.33 µM | 19.8 µM | 3.38 µM | 8.09 µM | 3.27 µM | 1.32 µM | 2.12 µM | 1.12 µM | 1.69 µM | 1.61 µM | 1.74 µM | 6.57 µM | 1.74 µM | 2.56 µM | 1.65 µM |
| Cc1ncc(C(=O)Nc2ccc(CN3CCN(C)CC3)c(C(F)(F)F)c2)cc1C#Cc1c(N)ncc2ccccc12 | 0.996 µM | 1.25 µM | 0.505 µM | 0.732 µM | 0.915 µM | 0.624 µM | 2.35 µM | 0.985 µM | 1.54 µM | 1.14 µM | 0.461 µM | 0.545 µM | 0.0535 µM | 0.336 µM | 0.465 µM | 0.163 µM | 0.648 µM | 0.415 µM | 0.67 µM | 0.568 µM |
| FC(F)(F)c1cccc2c(SCCc3n[nH]c(=S)o3)ccnc12 | > 100 µM | 82.6 µM | 81.6 µM | > 100 µM | > 100 µM | > 100 µM | > 100 µM | > 100 µM | > 100 µM | > 100 µM | 34.1 µM | 25.4 µM | 28.4 µM | 60.2 µM | 57 µM | 45.4 µM | 45.1 µM | 97.6 µM | 38 µM | 48.7 µM |
| Nc1ccc(C(OC(=O)c2cc3ccccc3c(Cc3c(O)c(C(=O)OC(c4ccc(N)cc4)(c4ccc(N)cc4)c4ccc(N)cc4)cc4ccccc34)c2O)(c2ccc(N)cc2)c2ccc(N)cc2)cc1 | 20.4 µM | 4.55 µM | 5.86 µM | 54 µM | 6.7 µM | 30.3 µM | > 100 µM | 17.2 µM | > 100 µM | > 100 µM | 1.22 µM | 1.4 µM | 1.15 µM | 2.49 µM | 1.83 µM | 2.5 µM | 13.6 µM | 2.7 µM | 15.5 µM | 0.475 µM |
| O=C(COc1cccc(/C=C2\Oc3ccc4ccccc4c3C2=O)c1)c1ccc(Cl)cc1 | > 100 µM | > 100 µM | > 100 µM | > 100 µM | 61.6 µM | > 100 µM | > 100 µM | > 100 µM | > 100 µM | > 100 µM | 52.1 µM | > 100 µM | > 100 µM | > 100 µM | 25 µM | 51 µM | > 100 µM | > 100 µM | > 100 µM | > 100 µM |
| CN(CC(=O)O)Cc1oc(CO)cc(=O)c1O | > 100 µM | > 100 µM | > 100 µM | > 100 µM | > 100 µM | > 100 µM | > 100 µM | > 100 µM | > 100 µM | > 100 µM | – | – | – | – | – | – | – | – | – | – |
